The values that follow come from patent US7749982B2, “Complex containing mequitazine, a cyclodextrin and an interaction agent” (Pierre Fabre Medicament, priority 2004, dated 2010).

Data set [1] can be described thus: Mequitazine solubilization test (2 g/l in water, HPLC assay). It counts as physicochemical. How it is done:
In the sense of the present invention, “rate of solubilization” means the percentage of solubilized mequitazine after stirring a mixture of water and mequitazine for 15 minutes at 37° C. A mixture of 2 g/l of mequitazine in water is usually used to measure this rate. This solubilization can be measured by a solubilization test as indicated below.
The mequitazine content in the dissolution solutions is measured by HPLC:
In a 100 ml Erlenmeyer flask, place a test sample equivalent to 100 mg of mequitazine. Add 50 ml of ultrapure water. […] Place under magnetic stirring at 400 rpm in a water bath at 37° C.±2° C. Remove a 2 ml sample under magnetic stirring at 15 minutes. Filter the sample on a 0.45 μm Gelman GHP Acrodisc polypropylene filter. The solution must be limpid. Dilute the sample to 1/200 in a phase: water/acetonitrile (50/50).
Deduce concentration X in μg/ml by following the regression line of the controls.
Calculate the concentration in μg/ml of solubilized mequitazine by multiplying by the inverse of the dilution made (i.e., 200).
The rate of solubility of mequitazine is calculated by dividing the concentration of solubilized mequitazine by the total concentration of mequitazine in the starting solution. […]
The solubility and the rates of solubilization of mequitazine only or mequitazine in physical mixtures are measured as indicated above in the “mequitazine solubilization test”. […]

Data set [2] in a line: Bioavailability of mequitazine administered by oral route. Conditions: in vivo. The text has this: As for many pharmaceutically active ingredients, the absorption of mequitazine administered by oral route takes place in the intestine. […] A very small portion of the mequitazine ingested is in solubilized form, and thus it is absorbed with difficulty through the intestinal barrier.

Structures are written as SMILES.

With `c1ccc2c(c1)Sc1ccccc1N2CC1CN2CCC1CC2` (stereo not drawn) [mequitazine], the “solubility (in words)” value is given as “high solubility” in data set [1] (acid pH range from 2 to 6) and “very low solubility” in data set [1] (pH 9). Also, in data set [2], the bioavailability (in general, dose-corrected exposure relative to a reference, in per cent) was ~0.3%.
